Consider three compounds from BindingDB's records for PubMed 35063731 (Chinese Academy of Sciences, 2022).

Assay [1] concerns the target T1, Maltase-glucoamylase (Homo sapiens, UniProt O43451). Put plainly: Inhibition of alpha-glucosidase (unknown origin).
For assay [2], the target named is T1, Maltase-glucoamylase. Put plainly: Inhibition of alpha-Glucosidase (unknown origin) using pNPG as substrate incubated for 20 mins by micro plate reader analysis.
Assay [3] is described as follows: Inhibition of influenza A virus Neuraminidase using 2-(4-methylumbelliferyl)-a-D-acetylneuraminic acid as substrate incubated for 30 mins by fluorescence based analysis.

T1 sequence (O43451 whole entry): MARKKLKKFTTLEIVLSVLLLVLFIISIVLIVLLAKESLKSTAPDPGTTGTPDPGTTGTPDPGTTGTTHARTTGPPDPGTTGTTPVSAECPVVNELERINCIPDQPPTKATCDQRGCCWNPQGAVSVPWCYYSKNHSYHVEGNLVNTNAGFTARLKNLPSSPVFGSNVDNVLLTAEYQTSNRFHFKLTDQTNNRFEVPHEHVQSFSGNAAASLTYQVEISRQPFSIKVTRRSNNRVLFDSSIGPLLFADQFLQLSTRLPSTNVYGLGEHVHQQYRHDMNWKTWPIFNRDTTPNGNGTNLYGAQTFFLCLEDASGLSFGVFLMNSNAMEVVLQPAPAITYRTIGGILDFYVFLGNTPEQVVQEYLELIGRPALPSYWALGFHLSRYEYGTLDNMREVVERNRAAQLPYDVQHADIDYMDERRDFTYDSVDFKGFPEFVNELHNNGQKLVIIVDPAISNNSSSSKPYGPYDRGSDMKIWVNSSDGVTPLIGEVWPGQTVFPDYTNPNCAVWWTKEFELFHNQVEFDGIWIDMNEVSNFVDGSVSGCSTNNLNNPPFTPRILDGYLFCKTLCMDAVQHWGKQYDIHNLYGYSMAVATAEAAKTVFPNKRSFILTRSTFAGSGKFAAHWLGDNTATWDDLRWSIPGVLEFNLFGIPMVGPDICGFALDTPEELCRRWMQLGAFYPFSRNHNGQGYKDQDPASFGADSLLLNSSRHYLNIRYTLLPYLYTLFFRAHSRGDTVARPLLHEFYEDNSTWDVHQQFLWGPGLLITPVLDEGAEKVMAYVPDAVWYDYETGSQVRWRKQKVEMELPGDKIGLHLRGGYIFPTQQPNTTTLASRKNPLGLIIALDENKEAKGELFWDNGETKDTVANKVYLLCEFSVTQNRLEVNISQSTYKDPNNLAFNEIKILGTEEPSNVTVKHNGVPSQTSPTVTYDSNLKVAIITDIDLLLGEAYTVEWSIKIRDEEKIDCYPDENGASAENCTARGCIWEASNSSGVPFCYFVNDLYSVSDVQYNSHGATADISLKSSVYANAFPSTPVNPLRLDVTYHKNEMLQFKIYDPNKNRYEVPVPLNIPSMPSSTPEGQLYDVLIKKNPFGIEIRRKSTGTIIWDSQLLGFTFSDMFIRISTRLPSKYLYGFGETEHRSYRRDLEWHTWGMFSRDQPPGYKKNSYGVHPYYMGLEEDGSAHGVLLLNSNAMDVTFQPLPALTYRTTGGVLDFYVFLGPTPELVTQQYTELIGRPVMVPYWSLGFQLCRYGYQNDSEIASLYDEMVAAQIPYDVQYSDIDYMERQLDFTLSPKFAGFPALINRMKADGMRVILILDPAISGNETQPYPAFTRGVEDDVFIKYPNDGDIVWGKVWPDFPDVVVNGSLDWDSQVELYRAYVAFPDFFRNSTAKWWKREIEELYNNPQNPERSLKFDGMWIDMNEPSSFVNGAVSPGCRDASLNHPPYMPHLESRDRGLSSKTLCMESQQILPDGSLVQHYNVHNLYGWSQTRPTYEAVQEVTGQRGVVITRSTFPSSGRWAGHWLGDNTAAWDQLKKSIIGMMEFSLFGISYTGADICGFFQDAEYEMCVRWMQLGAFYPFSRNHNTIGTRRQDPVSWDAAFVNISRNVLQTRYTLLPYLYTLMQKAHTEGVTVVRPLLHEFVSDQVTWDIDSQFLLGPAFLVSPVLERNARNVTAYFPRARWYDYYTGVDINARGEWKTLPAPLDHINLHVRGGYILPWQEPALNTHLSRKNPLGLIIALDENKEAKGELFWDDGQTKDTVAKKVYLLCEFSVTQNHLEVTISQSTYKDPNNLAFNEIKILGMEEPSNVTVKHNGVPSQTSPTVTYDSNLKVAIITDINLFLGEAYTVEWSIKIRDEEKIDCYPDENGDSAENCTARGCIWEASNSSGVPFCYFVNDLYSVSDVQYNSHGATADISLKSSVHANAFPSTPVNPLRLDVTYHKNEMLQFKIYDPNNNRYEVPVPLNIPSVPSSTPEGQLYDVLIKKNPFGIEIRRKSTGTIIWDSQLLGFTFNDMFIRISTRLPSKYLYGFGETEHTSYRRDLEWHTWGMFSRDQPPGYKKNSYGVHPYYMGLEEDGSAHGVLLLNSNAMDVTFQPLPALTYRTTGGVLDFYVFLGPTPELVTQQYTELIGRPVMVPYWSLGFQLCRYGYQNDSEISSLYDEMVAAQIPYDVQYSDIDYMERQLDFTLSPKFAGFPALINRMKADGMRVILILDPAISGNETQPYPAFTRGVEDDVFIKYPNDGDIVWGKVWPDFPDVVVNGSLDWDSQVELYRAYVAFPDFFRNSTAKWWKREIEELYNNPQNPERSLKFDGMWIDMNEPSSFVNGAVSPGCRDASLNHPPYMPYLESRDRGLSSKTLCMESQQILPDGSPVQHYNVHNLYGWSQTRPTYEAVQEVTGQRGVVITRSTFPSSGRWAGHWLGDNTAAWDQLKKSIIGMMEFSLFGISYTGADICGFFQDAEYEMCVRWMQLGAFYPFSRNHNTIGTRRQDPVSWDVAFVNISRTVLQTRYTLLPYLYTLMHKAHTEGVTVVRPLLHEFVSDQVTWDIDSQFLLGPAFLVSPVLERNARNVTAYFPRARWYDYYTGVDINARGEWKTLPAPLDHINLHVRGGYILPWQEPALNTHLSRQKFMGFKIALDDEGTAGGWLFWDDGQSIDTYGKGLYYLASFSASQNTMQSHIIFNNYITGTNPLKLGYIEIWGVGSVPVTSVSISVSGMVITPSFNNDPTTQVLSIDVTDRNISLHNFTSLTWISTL

Regarding `CC(C)=CCc1cc(C[C@@]2(C(=O)O)OC(=O)C(OC(C)(C)[C@@H](O)Cc3cc(C[C@@]4(C(=O)O)OC(=O)C(O)=C4c4ccc(O)cc4)ccc3O)=C2c2ccc(O)cc2)ccc1O`, at Maltase-glucoamylase [1], the IC50 was 10.5 µM.

`COc1cc2c(c(O)c1CO)C(=O)OC[C@@H]2O`: inhibition on Maltase-glucoamylase [2] was half-maximal at 1.41 mM (IC50).

In assay [3], `COC(=O)[C@@]1(C(=O)C(C)=O)C(C)=C(C)C=C2[C@]3(C=O)CC[C@H](OC(C)=O)C(C)(C)[C@H]3CC[C@@]21C` returned an IC50 of 8.1 nM.
